One compound from paper PMC7160333, “Physiological Role of Glutamate Dehydrogenase in Cancer Cells” (Frontiers in Oncology, 2020) can be followed below.

pIC50: −log10 of the molar value. Where two headings read alike, the source gives them in different places.

The test system of this experiment is 3T3 fibroblasts. The settings on record: for Duplication time: 3T3, 2-D culture, n = 3; for Maximal cellular densities: reached at day 5.

Experimental: All cancer and non-cancer cell lines used were purchased from ATCC and cultured in DMEM (Sigma-Aldrich) supplemented with 10% fetal bovine serum (Biowest, Nuaillé, France) and 10,000 U penicillin/streptomycin (Sigma-Aldrich) and placed under a humidified atmosphere of 5% CO2/95% air at 37°C.
Cell growth was followed by counting cellular density every 24 h during 7 to 8 days. […] The duplication time was determined by using the following equation: n=1/[3.32(logNF-logNI)]/(tF-tI) , where NF represents the number of cultured cells at the end of the exponential growth phase; NI represents the number of cells at the beginning of the growth curve; tF is the final time at which cells were harvested, and tI is the initial culture time. The specific growth rate μ was calculated from the slope of a semilogarithmic plot of cell densities in the exponential growth phase vs. time ([88]).

In the case of `Cl.N` [NH4Cl, Ammonium chloride], the Duplication time is on record as 46 ± 2 h (+5 mM NH4Cl) and 60 ± 1 h (+10 mM NH4Cl). In addition, the Maximal cellular densities is, setting by setting: (3T3, +5 mM NH4Cl) 45 ± 3 ×10^3; (3T3, +10 mM NH4Cl) 36 ± 2 ×10^3. Further, the pIC50 (read-out: IC50 for decrease of growth, mouse 3T3 fibroblasts, data not shown) was ~3.00.

As usually defined, the pIC50 is the IC50 on a negative log10 scale, so that one unit is a factor of ten.
